Assay results: patent publication US8119661B2, “Piperidine derivatives and their use as muscarinic receptor modulators” (AstraZeneca AB, priority 2007, dated 2012)

Key:
[1] = molecular target: T1, hM1 (human Muscarinic receptor subtype 1) (Homo sapiens, UniProt P11229); assay: Human M1 calcium mobilization FLIPR assay; format: cell-based; settings: CHO cells expressing hM1, intracellular Ca2+ release
T1 construct: expressed in transfected cells; host or cells: CHO cells (Chinese hamster ovary cells, ATCC)
T1 sequence (P11229 1-460): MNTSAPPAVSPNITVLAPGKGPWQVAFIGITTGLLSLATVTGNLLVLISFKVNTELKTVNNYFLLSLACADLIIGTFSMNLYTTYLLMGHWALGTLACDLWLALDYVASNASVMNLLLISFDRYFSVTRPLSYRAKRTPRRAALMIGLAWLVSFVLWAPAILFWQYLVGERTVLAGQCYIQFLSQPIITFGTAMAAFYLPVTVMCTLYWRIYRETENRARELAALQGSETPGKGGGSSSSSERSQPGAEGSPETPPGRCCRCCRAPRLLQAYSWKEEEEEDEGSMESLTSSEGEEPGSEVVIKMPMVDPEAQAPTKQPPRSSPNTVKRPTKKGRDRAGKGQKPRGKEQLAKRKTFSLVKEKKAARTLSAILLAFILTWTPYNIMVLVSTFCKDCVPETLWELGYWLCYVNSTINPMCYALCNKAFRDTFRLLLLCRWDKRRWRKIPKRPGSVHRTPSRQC
Method: The compound activity in the present invention (EC50 or IC50) is measured using a 384 plate-based imaging assay that monitors drug induced intracellular Ca^2+ release in whole cells. Activation of hM1 (human Muscarinic receptor subtype 1, gene bank access NM_000738), rM1 (rat Muscarinic receptor subtype 1, gene bank access NM_080773), hM3 (human Muscarinic receptor subtype 3, gene bank access NM_000740NM_000740) and hM5 (human Muscarinic receptor subtype 5, gene bank access NM_0121258), receptors expressed in CHO cells (Chinese hamster ovary cells, ATCC) is quantified in a Molecular Devices FLIPR II™ instrument as an increase in fluorescent signal. Inhibition of hM3 and hM5 by compounds is determined by the decrease in fluorescent signal in response to 2 nM acetylcholine activation.
Prior to experiment, the cell culture medium is removed from the plates by inversion. […] Plates are incubated at 37° C. for 60 minutes prior to start the experiment. The incubation is terminated by washing the cells four times in assay buffer, leaving a residual 25 μl buffer per well. Cell plates are then transferred to the FLIPR, ready for compound additions.
The day of experiment, acetylcholine and compounds are diluted in assay buffer in three-fold concentration range (10 points serial dilution) for addition by FLIPR instrument. For all calcium assays, a baseline reading is taken for 10 seconds followed by the addition of 12.5 μl of compounds, resulting in a total well volume of 37.5 μl. Data is collected every second for 60 pictures and then every 6 seconds for 20 pictures prior to the addition of agonist. For hM3 and hM5, before agonist addition, a second baseline reading is taken for 10 seconds followed by the addition of 12.5 μl of agonist or buffer, producing a final volume of 50 μl. After agonist stimulation, the FLIPR continues to collect data every second for 60 pictures and then every 6 seconds for 20 pictures. The fluorescence emission is read using filter 1 (emission 510-570 nm) by the FLIPR on board CCD camera.
Calcium mobilization output data are calculated as the maximal relative fluorescence unit (RFU) minus the minimal value for both compound and agonist reading frame (except for hM1 and rM1 using only the maximal RFU). Data are analyzed using sigmoidal fits of a non-linear curve-fitting program (XLfit version 4.2.2 Excel add-in version 4.2.2 build 18 math 1Q version 2.1.2 build 18). All pEC50 and pIC50 values are reported as arithmetic means±standard error of mean of ‘n’ independent experiments.

[2] = system: SNL rats (heat hyperalgesia); assay: Rat SNL heat hyperalgesia assay; format: in vivo; settings: sc, male Sprague Dawley SNL rats, paw withdrawal latency, morphine s.c. 30 min before testing, example 2 per os 60 min before testing, combination ratio example 2:morphine 1:1.56
Method: Rats undergo spinal nerve ligation surgery as described in Kim and Chung (1992) (reference 1). Briefly, rats are anesthetized with isoflurane, the left L5 and L6 are isolated and tightly ligated with 4-0 silk thread. The wound is closed by suturing and applying tissue adhesive. Compound testing is performed at day 9 to day 36 post-surgery.
For behavioral testing, the animals are acclimatized to the test room environment for a minimum of 30 min. In order to assess the degree of hyperalgesia, the animals are placed on a glass surface (maintained at 30° C.), and a heat-source is focused onto the plantar surface of the left paw. The time from the initiation of the heat until the animal withdraws the paw is recorded. Each animal is tested twice (with an interval of 10 min between the two tests). A decrease in Paw Withdrawal Latency (PWL, average of the two tests) relative to naïve animals indicates a hyperalgesic state. The rats with a PWL of at least 2 seconds less than average PWL of Naïve group are selected for compound testing. […]
In order to assess the degree of heat hyperalgesia, the rats were individually placed in Plexiglas boxes on the glass surface (maintained at 30° C.) of a paw thermal stimulator system (Model 390, series 8, IITC Life Science, Woodland Hills, USA) and allowed to acclimate for 30 min. […] Paw withdrawal latencies (PWLs) were calculated as the mean of the two values.

| EC50 [1] [nM] | SMILES | ED50 [2] [µmol/kg] |
| --- | --- | --- |
| 14 | CCOC(=O)N1CCC(C)(N2CCC(N3C(=O)N[C@H]4CCCC[C@@H]43)CC2)C1 (mixture of isomers) [Example 07, Ethyl 3-[4-[(3aS,7aS)-2-oxo-3a,4,5,6,7,7a-hexahydro-3H-benzoimidazol-1-yl]-1-piperidyl]-3-methyl-pyrrolidine-1-carboxylate] |  |
| 69 | CC1(N2CCC(N3C(=O)N[C@H]4CCCC[C@@H]43)CC2)CCN(C(=O)OCCF)C1 (mixture of isomers) [Example 08, 2-fluoroethyl 3-[4-[(3aS,7aS)-2-oxo-3a,4,5,6,7,7a-hexahydro-3H-benzoimidazol-1-yl]-1-piperidyl]-3-methyl-pyrrolidine-1-carboxylate] |  |
| < 3.6 | C#CCOC(=O)N1CCC(C)(N2CCC(N3C(=O)N[C@H]4CCCC[C@@H]43)CC2)C1 (mixture of isomers) [Example 09, Prop-2-ynyl 3-[4-[(3aS,7aS)-2-oxo-3a,4,5,6,7,7a-hexahydro-3H-benzoimidazol-1-yl]-1-piperidyl]-3-methyl-pyrrolidine-1-carboxylate] |  |
| 69 | COC(=O)N1CCC(C)(N2CCC(N3C(=O)N[C@H]4CCCC[C@@H]43)CC2)C1 (mixture of isomers) [Example 10, Methyl 3-[4-[(3aS,7aS)-2-oxo-3a,4,5,6,7,7a-hexahydro-3H-benzoimidazol-1-yl]-1-piperidyl]-3-methyl-pyrrolidine-1-carboxylate] |  |
| 55 | CCOC(=O)N1CCC(C)(N2CCC(N3C(=O)N[C@@H]4CCCC[C@H]43)CC2)C1 (mixture of isomers) [Example 11, Ethyl 3-[4-[(3aR,7aR)-2-oxo-3a,4,5,6,7,7a-hexahydro-3H-benzoimidazol-1-yl]-1-piperidyl]-3-methyl-pyrrolidine-1-carboxylate] |  |
| 11 | CCOC(=O)N1CCC(C)(N2CCC(N3C(=O)N[C@@H]4CCCC[C@@H]43)CC2)CC1 (relative stereo) [Example 12, Ethyl 4-[4-[(cis)-2-oxo-3a,4,5,6,7,7a-hexahydro-3H-benzoimidazol-1-yl]-1-piperidyl]-4-methyl-piperidine-1-carboxylate] |  |
| 54 | CC(C)OC(=O)N1CCC(C)(N2CCC(N3C(=O)N[C@@H]4CCCC[C@@H]43)CC2)CC1 (relative stereo) [Example 13, Propan-2-yl 4-[4-[(cis)-2-oxo-3a,4,5,6,7,7a-hexahydro-3H-benzoimidazol-1-yl]-1-piperidyl]-4-methyl-piperidine-1-carboxylate] |  |
| 4.9 | CC#CCOC(=O)N1CCC(C)(N2CCC(N3C(=O)N[C@H]4CCCC[C@@H]43)CC2)C1 (single isomer, unassigned) [Example 19] |  |
| 18.4 | CCOC(=O)N1CCC(C)(N2CCC(N3C(=O)N[C@H]4CCCC[C@@H]43)CC2)C1 (single isomer, unassigned) [Example 21] |  |
| 3 | CCOC(=O)N1CCC(C)(N2CCC(N3C(=O)N[C@H]4CCCC[C@@H]43)CC2)C1 (single isomer, unassigned) [Example 22] |  |
| 1.9 | CCOC(=O)N1CCC(C)(N2CCC(N3C(=O)N[C@H]4CCCC[C@@H]43)CC2)CC1 [Example 01, Ethyl 4-[4-[(3aS,7aS)-2-oxo-3a,4,5,6,7,7a-hexahydro-3H-benzoimidazol-1-yl]-1-piperidyl]-4-methyl-piperidine-1-carboxylate] |  |
| < 7.1 | CC1(N2CCC(N3C(=O)N[C@H]4CCCC[C@@H]43)CC2)CCN(C(=O)C2CC2)CC1 [Example 03, (3aS,7aS)-1-[1-[1-(cyclopropanecarbonyl)-4-methyl-4-piperidyl]-4-piperidyl]-3a,4,5,6,7,7a-hexahydro-3H-benzoimidazol-2-one] |  |
| 3.3 | CCOC(=O)N1CCC(C)(N2CCC(N3C(=O)N[C@@H]4CCCC[C@H]43)CC2)CC1 [Example 04, Ethyl 4-[4-[(3aR,7aR)-2-oxo-3a,4,5,6,7,7a-hexahydro-3H-benzoimidazol-1-yl]-1-piperidyl]-4-methyl-piperidine-1-carboxylate] |  |
| 25 | CC(C)OC(=O)N1CCC(C)(N2CCC(N3C(=O)N[C@@H]4CCCC[C@H]43)CC2)CC1 [Example 05, Propan-2-yl 4-[4-[(3aR,7aR)-2-oxo-3a,4,5,6,7,7a-hexahydro-3H-benzoimidazol-1-yl]-1-piperidyl]-4-methyl-piperidine-1-carboxylate] |  |
| 51 | CC1(N2CCC(N3C(=O)N[C@@H]4CCCC[C@H]43)CC2)CCN(C(=O)C2CC2)CC1 [Example 06, (3aR,7aR)-1-[1-[1-(cyclopropanecarbonyl)-4-methyl-4-piperidyl]-4-piperidyl]-3a,4,5,6,7,7a-hexahydro-3H-benzoimidazol-2-one] |  |
| 19 | CC(C)OC(=O)N1CCC(C)(N2CCC(N3C(=O)C[C@H]4CCCC[C@@H]43)CC2)CC1 [Example 14, Propan-2-yl 4-[4-[(3aR,7aS)-2-oxo-3a,4,5,6,7,7a-hexahydro-3H-indol-1-yl]-1-piperidyl]-4-methyl-piperidine-1-carboxylate] |  |
| 36 | CC1(N2CCC(N3C(=O)C[C@H]4CCCC[C@@H]43)CC2)CCN(C(=O)C2CC2)CC1 [Example 15, (3aR,7aS)-1-[1-[1-(cyclopropanecarbonyl)-4-methyl-4-piperidyl]-4-piperidyl]-3a,4,5,6,7,7a-hexahydro-3H-indol-2-one] |  |
| 3.6 | CC#CCOC(=O)N1CCC(C)(N2CCC(N3C(=O)N[C@H]4CCCC[C@@H]43)CC2)CC1 [Example 16, But-2-ynyl 4-[4-[(3aS,7aS)-2-oxo-3a,4,5,6,7,7a-hexahydro-3H-benzimidazol-1-yl]-1-piperidyl]-4-methyl-piperidine-1-carboxylate] |  |
| 1.5 | C#CCOC(=O)N1CCC(C)(N2CCC(N3C(=O)N[C@H]4CCCC[C@@H]43)CC2)CC1 [Example 17, prop-2-ynyl 4-[4-[(3aS,7aS)-2-oxo-3a,4,5,6,7,7a-hexahydro-3H-benzimidazol-1-yl]-1-piperidyl]-4-methyl-piperidine-1-carboxylate] |  |
| 66.6 | CCC(=O)N1CCC(C)(N2CCC(N3C(=O)N[C@H]4CCCC[C@@H]43)CC2)CC1 [Example 18, (3aS,7aS)-3-[1-(4-methyl-1-propanoyl-4-piperidyl)-4-piperidyl]-3a,4,5,6,7,7a-hexahydro-1H-benzimidazol-2-one] |  |

| SMILES | EC50 [1] [nM] | ED50 [2] [µmol/kg] |
| --- | --- | --- |
| CCOC(=O)N1CCC(C)(N2CCC(N3C(=O)C[C@@H]4CCCC[C@H]43)CC2)C1 (stereo in doubt) [Example 23, Ethyl 3-[4-[(3aS,7aR)-2-oxo-3a,4,5,6,7,7a-hexahydro-3H-indol-1-yl]-1-piperidyl]-3-methyl-pyrrolidine-1-carboxylate] | 22 |  |
| CC(C)OC(=O)N1CCC(C)(N2CCC(N3C(=O)N[C@H]4CCCC[C@@H]43)CC2)CC1 [Example 02, Propan-2-yl 4-[4-[(3aS,7aS)-2-oxo-3a,4,5,6,7,7a-hexahydro-3H-benzoimidazol-1-yl]-1-piperidyl]-4-methyl-piperidine-1-carboxylate] | 4.4 | 2.4 |
